Assay results published in US20240398817A1, “CARDIO- AND RENOSAFE ANTIDIABETIC THERAPY” (priority 2018, published 2024).

Tested on: patients with type 2 diabetes at high vascular risk
Assay: Cardiovascular and Renal Outcomes Trial: linagliptin 5 mg once daily vs placebo on top of standard of care
Format: in vivo
Settings: for Hazard ratio for hospitalised heart failure: vs placebo
Procedure: The effect of linagliptin on cardiovascular risk in adult patients with type 2 diabetes mellitus and with increased CV risk evidenced by a history of established macrovascular or renal disease (e.g. as defined herein) was evaluated in a multi-center, multi-national, randomized, double-blind parallel group trial. The trial compared the risk of experiencing a major adverse cardiovascular event (MACE) between linagliptin and placebo when these were added to and used concomitantly with standard of care treatments for diabetes (HbA1c), cardiovascular risk factors and renal disease.
The primary endpoint in this trial was the time to first occurrence of three point (3P) MACE. A major adverse cardiac event was defined as a cardiovascular death or a nonfatal myocardial infarction (MI) or a nonfatal stroke. The statistical analysis plan tested for non-inferiority for the occurrence of (3P) MACE. […] The secondary endpoint was a renal composite, defined as renal death or sustained end stage renal disease or sustained decrease of 40% or more in eGFR.
Type 2 diabetes patient with insufficient glycemic control (naïve or pre-treated with any antidiabetic background medication, excluding treatment with GLP-1 receptor agonists, DPP-4inhibitors or SGLT-2 inhibitors if ≥consecutive 7 days, e.g. having HbA1c 6.5-10%), and high risk of cardiovascular events, e.g. defined by: • albuminuria (micro or macro) and previous macrovascular disease: e.g. defined according to Condition I as indicated below; • and/or • impaired renal function: e.g. as defined according to Condition II as indicated below;
Background and aims: People with type 2 diabetes (T2D) are at increased risk for hospitalization for heart failure (hHF), particularly in the setting of concomitant cardiovascular (CV) and/or kidney disease. […] Here we present analyses of HF outcomes with the DPP-4 inhibitor linagliptin (LINA) vs. placebo (PBO) from a Cardiovascular and Renal Outcomes Trial assessing cardiovascular safety and renal microvascular outcome in patients with type 2 diabetes at high vascular risk, a large CV outcomes trial that enrolled participants with T2D at high risk for hHF due to concomitant CV and/or chronic kidney disease. Materials and methods: People with T2D and concomitant CV and/or kidney disease were randomized to receive LINA 5 mg, or PBO once daily (1:1), on top of standard of care. All hHF, CV outcomes, and deaths were centrally adjudicated, with individual and composite HF-related outcomes analyses comparing LINA vs. placebo. Investigator-reported HF-related adverse events, whether or not confirmed by adjudication, were also analyzed. A Cox proportional hazards model adjusting for region and history of HF was used for analyses of first events. Recurrent hHF events were analyzed using a negative binomial model.
Methods: The present Cardiovascular and Renal Outcomes Trial randomized people with T2D and i) concomitant CV disease with UACR >30 mg/g or ii) prevalent CKD (i.e. GFR <45 ml/min/1.73m2 and/or UACR >200 mg/g) to receive the DPP-4 inhibitor linagliptin (5 mg) or placebo once daily in a double-blind fashion. The primary CV endpoint was 3P-MACE, with a key secondary kidney endpoint (adjudicated ESKD, renal death, or sustained ≥40% decrease in eGFR from baseline) and other renal outcomes (including albuminuria and eGFR slope) also assessed. Subgroups were assessed by baseline kidney function (eGFR ≥/<45 ml/min/1.73m2and eGFR ≥/<30, 45 or 60 ml/min/1.73m2).
Adults with type 2 diabetes, HbA1c 6.5-10.0% inclusive, and high CV risk were eligible for inclusion. […] Macrovascular disease eligibility criteria was based on documented and confirmed history of myocardial infarction, coronary artery disease, stroke, carotid artery disease, or peripheral artery disease. Participants with end-stage kidney disease (ESKD), defined as eGFR <15 or requiring maintenance dialysis, were excluded.

[1] = Duration of type 2 diabetes ≥10 years
[2] = Established macrovascular disease and albuminuria No
[3] = Established macrovascular disease and albuminuria Yes
[4] = Estimated glomerular filtration rate <30 mL/min/1.73 m^2
[5] = Estimated glomerular filtration rate ≥30 to <45 mL/min/1.73 m^2
[6] = Estimated glomerular filtration rate ≥45 to <60 mL/min/1.73 m^2
[7] = Estimated glomerular filtration rate ≥60 mL/min/1.73 m^2

## CC#CCn1c(N2CCC[C@@H](N)C2)nc2c1c(=O)n(Cc1nc(C)c3ccccc3n1)c(=O)n2C [Linagliptin, 1-[(4-methyl-quinazolin-2-yl)methyl]-3-methyl-7-(2-butyn-1-yl)-8-(3-(R)-amino-piperidin-1-yl)-xanthine]
[1]
  3-point MACE: patients with event/patients analyzed: 316/2277
  Key secondary kidney outcome: hazard ratio vs placebo: 0.97
  Key secondary kidney outcome: patients with event/patients analyzed: 230/2277
  Patients with event/patients analysed, hospitalised heart failure: 149/2277
  Hazard ratio for hospitalised heart failure: 0.89
[2]
  3-point MACE: hazard ratio vs placebo: 1.13
  3-point MACE: patients with event/patients analyzed: 198/1486
  Key secondary kidney outcome: hazard ratio vs placebo: 1.03
  Key secondary kidney outcome: patients with event/patients analyzed: 215/1486
  Patients with event/patients analysed, hospitalised heart failure: 96/1486
  Hazard ratio for hospitalised heart failure: 0.87
[3]
  3-point MACE: hazard ratio vs placebo: 0.94
  3-point MACE: patients with event/patients analyzed: 236/2008
  Key secondary kidney outcome: hazard ratio vs placebo: 1.11
  Key secondary kidney outcome: patients with event/patients analyzed: 112/2008
  Patients with event/patients analysed, hospitalised heart failure: 113/2008
  Hazard ratio for hospitalised heart failure: 0.93
Established renal disease No
  3-point MACE: hazard ratio vs placebo: 0.98
  3-point MACE: patients with event/patients analyzed: 120/1385
  Key secondary kidney outcome: hazard ratio vs placebo: 1.20
  Key secondary kidney outcome: patients with event/patients analyzed: 38/1385
  Patients with event/patients analysed, hospitalised heart failure: 47/1385
  Hazard ratio for hospitalised heart failure: 1.19
Established renal disease Yes
  3-point MACE: hazard ratio vs placebo: 1.04
  3-point MACE: patients with event/patients analyzed: 314/2109
  Key secondary kidney outcome: hazard ratio vs placebo: 1.00
  Key secondary kidney outcome: patients with event/patients analyzed: 289/2109
  Patients with event/patients analysed, hospitalised heart failure: 162/2109
  Hazard ratio for hospitalised heart failure: 0.84
[4]
  Patients with event/patients analysed, hospitalised heart failure: 59/516
  Hazard ratio for hospitalised heart failure: 0.94
[5]
  Patients with event/patients analysed, hospitalised heart failure: 76/994
  Hazard ratio for hospitalised heart failure: 0.85
[6]
  Patients with event/patients analysed, hospitalised heart failure: 38/690
  Hazard ratio for hospitalised heart failure: 1.06
[7]
  Patients with event/patients analysed, hospitalised heart failure: 36/1294
  Hazard ratio for hospitalised heart failure: 0.88
Ethnicity Hispanic/Latino
  3-point MACE: hazard ratio vs placebo: 1.13
  3-point MACE: patients with event/patients analyzed: 143/1227
  Key secondary kidney outcome: hazard ratio vs placebo: 1.10
  Key secondary kidney outcome: patients with event/patients analyzed: 156/1227
  Patients with event/patients analysed, hospitalised heart failure: 58/1227
  Hazard ratio for hospitalised heart failure: 0.96
Ethnicity Not Hispanic/Latino
  3-point MACE: hazard ratio vs placebo: 0.97
  3-point MACE: patients with event/patients analyzed: 291/2267
  Key secondary kidney outcome: hazard ratio vs placebo: 0.99
  Key secondary kidney outcome: patients with event/patients analyzed: 171/2267
  Patients with event/patients analysed, hospitalised heart failure: 151/2267
  Hazard ratio for hospitalised heart failure: 0.87
Gender Female
  3-point MACE: hazard ratio vs placebo: 0.96
  3-point MACE: patients with event/patients analyzed: 152/1346
  Key secondary kidney outcome: hazard ratio vs placebo: 0.92
  Key secondary kidney outcome: patients with event/patients analyzed: 117/1346
  Patients with event/patients analysed, hospitalised heart failure: 74/1346
  Hazard ratio for hospitalised heart failure: 0.97
Gender Male
  3-point MACE: hazard ratio vs placebo: 1.06
  3-point MACE: patients with event/patients analyzed: 282/2148
  Key secondary kidney outcome: hazard ratio vs placebo: 1.12
  Key secondary kidney outcome: patients with event/patients analyzed: 210/2148
  Patients with event/patients analysed, hospitalised heart failure: 135/2148
  Hazard ratio for hospitalised heart failure: 0.87
Glycated haemoglobin <8.0%
  Patients with event/patients analysed, hospitalised heart failure: 107/1915
  Hazard ratio for hospitalised heart failure: 0.78
Glycated haemoglobin ≥8.0%
  Patients with event/patients analysed, hospitalised heart failure: 102/1579
  Hazard ratio for hospitalised heart failure: 1.05
Glycated hemoglobin <8.0%
  3-point MACE: hazard ratio vs placebo: 0.90
  3-point MACE: patients with event/patients analyzed: 229/1915
  Key secondary kidney outcome: hazard ratio vs placebo: 1.13
  Key secondary kidney outcome: patients with event/patients analyzed: 186/1915
Glycated hemoglobin ≥8.0%
  3-point MACE: hazard ratio vs placebo: 1.20
  3-point MACE: patients with event/patients analyzed: 205/1579
  Key secondary kidney outcome: hazard ratio vs placebo: 0.94
  Key secondary kidney outcome: patients with event/patients analyzed: 141/1579
History of heart failure No
  3-point MACE: hazard ratio vs placebo: 1.02
  3-point MACE: patients with event/patients analyzed: 275/2542
  Key secondary kidney outcome: hazard ratio vs placebo: 1.07
  Key secondary kidney outcome: patients with event/patients analyzed: 252/2542
  Patients with event/patients analysed, hospitalised heart failure: 96/2542
  Hazard ratio for hospitalised heart failure: 0.92
History of heart failure Yes
  3-point MACE: hazard ratio vs placebo: 1.01
  3-point MACE: patients with event/patients analyzed: 159/952
  Key secondary kidney outcome: hazard ratio vs placebo: 0.95
  Key secondary kidney outcome: patients with event/patients analyzed: 75/952
  Patients with event/patients analysed, hospitalised heart failure: 113/952
